# Like-named read-outs stand apart in the source and are kept apart here.
# What was measured:
# [1] = tested on: patients undergoing surgery for colon cancer
# Protocol: All the patients entering this trial were about to undergo major abdominal surgery for the resection of carcinoma of the colon.
# (§1) In the treated group GMDP was given per os on days -2 and -1 before the operation, and subcutaneously on days +1, +2 and +3 after the operation at a dose of 1-2 mg/day. The total dose of GMDP was […]. On day +5 after the operation neutrophil function was again assessed in all patients by the same parameters as specified above.
# The patients were monitored for post-operative sepsis for four weeks following the operation. The septic complications which were scored included disseminated sepsis, pneumonia, peritonitis and abdominal abscesses, all of which are known to lead to septic shock.
# neutrophils [2] = tested on: neutrophils
# Protocol: (§2) Neutrophils were isolated from peripheral blood. 3.5 ml of heparinised blood was spread over M-PRM medium (Flow Laboratories) and centrifuged for 40 minutes at 400g at 20° C. […] The cells were adjusted to a concentration of 2×10^6 ml.
# (§3) Acid phosphatase: 50 μl of substrate mixture, consisting of 0.24% paranitrophenyl phosphate (Boehring) and 0.84% NaCl in a sodium citrate buffer (pH 5.5) were added to cells and incubated for 30 minutes at 30° C. before the reaction was by adding 100 μl of 0.2M NaOH. The optical density at 405 mu was measured with a Multiscan Titertek Plus (Flow Laboratories).
# (§4) For chemiluminescence, superoxide anion production, myeloperoxidase and acid phosphatase both the spontaneous and induced reactions were measured. Induction was performed by exposing the cells to opsonized zymosan (30 μl, 20 mg/ml) for 30 minutes at 37° C. before the assay.
# as §1
# [3] = tested on: patients suffering from acute sepsis; settings: GMDP parenterally 1-2 mg/day for five days
# Protocol: The patients entering this trial were already suffering from serious systemic bacterial sepsis arising as a result of destructive cholecystitis, abscesses of the abdominal cavity, peritonitis, pancreonecrosis and post-operative pneumonia.
# (§5) On day before treatment with GMDP (day -1) the neutrophil function of all patients was measured by the tests described above in Example 1. In the GMDP-treated group, GMDP was administered parenterally at a dose of 1-2 mg/day for five consecutive days. The total dose of GMDP was […].
# neutrophils [4] = tested on: neutrophils; remark: listed apart in the source
# Protocol: as §2
# Adhesion: 100 μl of neutrophil suspension were placed in the wells of a flat-bottomed culture dish, and incubated at 37° C. for 60 minutes. After washing off the non-adhesive cells, the adhered neutrophils were fixed with ethanol and stained with Romanovsky-Giemsa dye. After washing out the free dye, the cell-associated dye was dissolved in isopropanol, and the optical density (OD650) of the solution was determined using an "ELISA II" microprocessor (Boehringer). The number of adherent cells was calculated by reference to a standard curve.
# as §1
# serum TNF = assay: Example 7: LPS induction of serum TNF; type: in vivo, BALB/c mice; settings: C. parvum-primed mice, 100 μg (equimolar) IP, LPS 25 μg 18 hours later; FIG. 5
# Protocol: In this experiment, 4 compounds were tested and these are: MDP, GMDP-A, GMDP-OBu and GMDP. Saline was administered to control mice. BALB/c mice (6 mice/group) were injected intraperitoneally with 1.4 mg of dead C. parvum (0.2 ml of a 7 mg/ml suspension.). Mice were subsequently (2 weeks later) treated with saline, MDP (100 μg) or analogue (100 μg) in 0.5 ml saline IP. The dose of each `MDP` was adjusted so that animals received equimolar amounts. LPS (25 μg) was injected 18 hours after the injection of MDP/analogue and mice were subsequently sacrificed and bled out. TNF was determined by standard capture ELISA assay.
# neutrophils [5] = tested on: neutrophils; remark: listed apart in the source
# Protocol: as §2
# Superoxide anion production was determined by the NBT test (Merck).
# as §4, §5
# (§6) One day after the cessation of GMDP treatment (day +6), neutrophil function was again measured in all patients.
# neutrophils [6] = tested on: neutrophils; remark: listed apart in the source
# Protocol: as §2, §3, §4, §5, §6
# neutrophils [7] = tested on: neutrophils; remark: listed apart in the source
# Protocol: as §2
# Myeloperoxidase: 100 μl of substrate mixture, consisting of 0.04% orthophenylene diamine (Sigma) and 0.014% hydrogen peroxide in phosphate citrate buffer (pH 5.0) was added to cells and incubated for 10 minutes before the reaction was stopped with 100 μl of 10% sulphuric acid. The optical density at 492 mu was measured with a Multiscan Titertek Plus (Flow Laboratories).
# as §4, §5, §6
# [8] = tested on: LPS-induced mortality in mice; assay: Example 3: LPS-induced mortality in mice; type: in vivo, BALB/c mice; settings: i.p. twice daily 100 μg or molar equivalent per mouse for 9 days before 300 μg LPS; mortality 2 days after LPS; FIG. 1
# Protocol: 25 female BALB/c mice weighing 16-18 g each were divided into 5 groups, each group containing 5 animals. Each group of mice received twice-daily doses of saline, GMDP, GMDP-OBu, MDP or GMDP-A. The compounds were administered by intra-peritoneal injection in twice-daily doses of 100 μg or the molar equivalent per mouse during a 9-day period before the injection of 300 μg LPS per mouse. […] Thus GMDP and GMDP-A would be useful in the treatment and prevention of sepsis and septic shock, whereas MDP and GMDP-OBu would not.
# neutrophils [9] = tested on: neutrophils; remark: listed apart in the source
# Protocol: as §2
# Chemiluminescence: Luminol-dependent chemiluminescence was measured on a 1251 Luminometer (LKB).
# as §4, §1
# [10] = opsonized zymosan, Day -3 (before treatment)
# [11] = opsonized zymosan, Day -3 to Day +5
# [12] = opsonized zymosan, Day -1 (before treatment)
# [13] = opsonized zymosan, Day -1 to Day +6
compound,measurement,setting,value
"CC(=O)NC1C(OC2C(CO)OC(O)C(NC(C)=O)C2OC(C)C(=O)NC(C)C(=O)NC(CCC(=O)O)C(N)=O)OC(CO)C(O)C1O [GMDP, N-acetyl-D-glucosaminyl-(β1-4)-N-acetylmuramyl-L-alanyl-D-isoglutamine]",No of Patients with Septic Complications,"[1]; 16 treated patients, GMDP 1-2 mg/day per os days -2,-1, s.c. days +1 to +3, monitored 4 weeks",3
same,Mortality (%),"[1]; GMDP before and after operation, control 15%",6.25%
same,Incidence of Septic Complications (%),"[1]; GMDP before and after operation, control 50%",18.75%
same,"Acid phosphatase, spontaneous",neutrophils [2]; Day +5,114.9 ± 2.4 O.D. 405μ
same,"Acid phosphatase, spontaneous",neutrophils [2]; Day -3 (before treatment),133.8 ± 75 O.D. 405μ
same,"Acid phosphatase, spontaneous % Change",neutrophils [2]; Day -3 to Day +5,-14.1%
same,"Acid phosphatase, induced","neutrophils [2]; opsonized zymosan, Day +5",120.8 ± 3.2 O.D. 405μ
same,"Acid phosphatase, induced",neutrophils [2]; [10],172.3 ± 18.8 O.D. 405μ
same,"Acid phosphatase, induced % Change",neutrophils [2]; [11],-29.94%
same,No of patients with progression of septic complications,[3]; 14 treated patients,4
same,Mortality (%),[3]; control 27%,14.3%
same,Incidence of progression of septic complications (%),[3]; control 61%,28.6%
same,Adhesion,neutrophils [4]; Day +5 after operation,47.9 ± 12.6 O.D. 650μ
same,Adhesion,neutrophils [4]; Day -3 (before treatment),39.8 ± 5.4 O.D. 650μ
same,Adhesion % Change,neutrophils [4]; Day -3 to Day +5,+20.4%
same,effect on LPS induction of serum TNF,serum TNF,able to suppress the production of TNFα
same,"Superoxide, spontaneous",neutrophils [5]; Day +6,84.3 ± 8.7 O.D. 540μ
same,"Superoxide, spontaneous",neutrophils [5]; Day -1 (before treatment),55.5 ± 6.4 O.D. 540μ
same,"Superoxide, spontaneous % Change",neutrophils [5]; Day -1 to Day +6,+51.9%
same,"Superoxide, induced",neutrophils [5]; [12],92.1 ± 3.21 O.D. 540μ
same,"Superoxide, induced % Change",neutrophils [5]; [13],+53.2%
same,"Acid phosphatase, spontaneous",neutrophils [6]; Day +6,251.3 ± 16.1 O.D. 405μ
same,"Acid phosphatase, spontaneous",neutrophils [6]; Day -1 (before treatment),119.4 ± 10.1 O.D. 405μ
same,"Acid phosphatase, spontaneous % Change",neutrophils [6]; Day -1 to Day +6,+110.5%
same,"Acid phosphatase, induced","neutrophils [6]; opsonized zymosan, Day +6",201 ± 14.3 O.D. 405μ
same,"Acid phosphatase, induced",neutrophils [6]; [12],104.4 ± 3.6 O.D. 405μ
same,"Acid phosphatase, induced % Change",neutrophils [6]; [13],+92.5%
same,"Myeloperoxidase, spontaneous",neutrophils [7]; Day +6,595.2 ± 48.3 O.D. 492μ
same,"Myeloperoxidase, spontaneous",neutrophils [7]; Day -1 (before treatment),504.5 ± 118 O.D. 492μ
same,"Myeloperoxidase, spontaneous % Change",neutrophils [7]; Day -1 to Day +6,+17.9%
same,"Myeloperoxidase, induced","neutrophils [7]; opsonized zymosan, Day +6",587.1 ± 96.3 O.D. 492μ
same,"Myeloperoxidase, induced",neutrophils [7]; [12],520.3 ± 60.1 O.D. 492μ
same,"Myeloperoxidase, induced % Change",neutrophils [7]; [13],+12.8%
same,effect on LPS-induced mortality,[8],antagonise the effect of LPS
same,"Chemiluminescence, spontaneous",neutrophils [9]; Day +5,3.37 ± 0.70 mV
same,"Chemiluminescence, spontaneous",neutrophils [9]; Day -3 (before treatment),1.82 ± 0.07 mV
same,"Chemiluminescence, spontaneous % Change",neutrophils [9]; Day -3 to Day +5,+85.2%
same,"Chemiluminescence, induced","neutrophils [9]; opsonized zymosan, Day +5",15.8 ± 4.2 mV
same,"Chemiluminescence, induced",neutrophils [9]; [10],11.3 ± 2.1 mV
same,"Chemiluminescence, induced % Change",neutrophils [9]; [11],+39.8%

# From patent US5506204A, “Muramyl compounds for treatment of septic shock” (Peptech (UK) Limited, priority 1991, dated 1996)
